ChEMBL document CHEMBL1909046, “DrugMatrix in vitro pharmacology data”

How the values were obtained:
[1] = biological target: Sigma non-opioid intracellular receptor 1 (Homo sapiens, UniProt Q99720); assay: DRUGMATRIX: Sigma1 radioligand binding (ligand: [3H] Haloperidol); assay type: cell membranes, Jurkat, Membrane; details: Not Active = under 50% inhibition at 10 µM
[2] = biological target: T1, Muscarinic acetylcholine receptor M2 (Homo sapiens, UniProt P08172); assay type: cell membranes, CHO-K1, Membrane; details: cho-k1; also: in other assays of this panel Not Active means under 50% inhibition at 10 µM
T1 sequence (P08172 whole entry): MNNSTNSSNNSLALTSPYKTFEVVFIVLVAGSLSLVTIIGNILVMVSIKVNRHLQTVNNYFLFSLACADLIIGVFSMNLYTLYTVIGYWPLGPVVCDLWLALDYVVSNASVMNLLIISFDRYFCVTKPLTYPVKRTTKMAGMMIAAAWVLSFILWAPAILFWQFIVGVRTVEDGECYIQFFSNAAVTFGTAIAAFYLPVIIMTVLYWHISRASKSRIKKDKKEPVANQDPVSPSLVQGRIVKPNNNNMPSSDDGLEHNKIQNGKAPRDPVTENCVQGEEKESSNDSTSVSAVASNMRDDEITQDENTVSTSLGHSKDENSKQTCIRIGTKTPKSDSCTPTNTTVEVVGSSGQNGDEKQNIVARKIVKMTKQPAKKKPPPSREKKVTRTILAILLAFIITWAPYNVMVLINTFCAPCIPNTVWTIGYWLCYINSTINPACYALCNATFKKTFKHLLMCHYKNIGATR

[3] = DRUGMATRIX: Nicotinic Acetylcholine radioligand binding (ligand: [125I] Epibatidine); assay type: cell membranes, Membrane; details: imr-32; Not Active = under 50% inhibition at 10 µM
[4] = DRUGMATRIX: Glutamate, NMDA, Phencyclidine radioligand binding (ligand: [3H] TCP); assay type: cell membranes, Rattus norvegicus, Wistar, Cerebral cortex, Membrane; details: Not Active = under 50% inhibition at 10 µM
[5] = biological target: T2, 3-hydroxy-3-methylglutaryl-coenzyme A reductase (Homo sapiens, UniProt P04035); set-up: species or system Escherichia coli;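 also: enzyme inhibition assay of HMG-CoA reductase using radiolabeled [14C]HMG-CoA as substrate; in other assays of this panel Not Active means under 50% inhibition at 10 µM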
T2 sequence (P04035 whole entry): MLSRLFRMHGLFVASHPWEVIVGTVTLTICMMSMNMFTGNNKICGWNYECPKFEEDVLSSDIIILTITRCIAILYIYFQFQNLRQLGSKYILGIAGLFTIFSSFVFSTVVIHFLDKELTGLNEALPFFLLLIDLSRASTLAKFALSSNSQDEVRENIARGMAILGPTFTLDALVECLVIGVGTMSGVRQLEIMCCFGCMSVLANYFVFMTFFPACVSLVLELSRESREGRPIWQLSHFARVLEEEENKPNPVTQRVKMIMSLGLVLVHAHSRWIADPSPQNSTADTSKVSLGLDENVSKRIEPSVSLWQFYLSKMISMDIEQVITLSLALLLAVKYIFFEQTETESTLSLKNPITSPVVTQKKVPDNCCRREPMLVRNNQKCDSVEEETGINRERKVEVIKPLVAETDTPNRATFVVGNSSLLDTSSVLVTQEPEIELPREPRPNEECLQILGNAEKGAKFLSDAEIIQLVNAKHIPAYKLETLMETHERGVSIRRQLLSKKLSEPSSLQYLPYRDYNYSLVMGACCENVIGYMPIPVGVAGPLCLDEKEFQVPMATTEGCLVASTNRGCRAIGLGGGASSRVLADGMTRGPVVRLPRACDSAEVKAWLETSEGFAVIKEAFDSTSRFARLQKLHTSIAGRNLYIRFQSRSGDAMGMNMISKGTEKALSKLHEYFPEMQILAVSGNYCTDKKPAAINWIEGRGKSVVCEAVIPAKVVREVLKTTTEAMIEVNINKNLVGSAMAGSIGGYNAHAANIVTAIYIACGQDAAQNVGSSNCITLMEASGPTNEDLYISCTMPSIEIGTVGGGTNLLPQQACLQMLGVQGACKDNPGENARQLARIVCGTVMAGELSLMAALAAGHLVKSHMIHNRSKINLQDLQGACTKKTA

[6] = biological target: T3, Amine oxidase [flavin-containing] A (Homo sapiens, UniProt P21397); assay: DRUGMATRIX: Monoamine Oxidase MAO-A enzyme inhibition (substrate: Kynuramine); set-up: species or system BTI-TN-5B1-4; details: bti-tn-5b1-4; Not Active = under 50% inhibition at 10 µM
T3 sequence (P21397 whole entry): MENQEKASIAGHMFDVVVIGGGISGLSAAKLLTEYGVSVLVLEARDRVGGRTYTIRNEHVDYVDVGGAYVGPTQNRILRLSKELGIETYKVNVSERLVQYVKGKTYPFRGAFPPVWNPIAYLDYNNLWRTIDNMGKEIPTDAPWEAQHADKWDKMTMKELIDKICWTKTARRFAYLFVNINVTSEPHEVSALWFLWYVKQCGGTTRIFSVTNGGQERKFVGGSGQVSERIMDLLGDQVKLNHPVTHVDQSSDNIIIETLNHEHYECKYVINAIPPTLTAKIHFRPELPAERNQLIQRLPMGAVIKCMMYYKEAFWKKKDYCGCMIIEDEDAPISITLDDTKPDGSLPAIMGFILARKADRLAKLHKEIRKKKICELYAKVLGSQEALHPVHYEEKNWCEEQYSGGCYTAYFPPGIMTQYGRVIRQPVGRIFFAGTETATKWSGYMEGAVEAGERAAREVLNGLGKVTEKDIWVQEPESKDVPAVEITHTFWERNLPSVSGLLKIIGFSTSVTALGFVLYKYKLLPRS

Chain of Sigma non-opioid intracellular receptor 1 (Q99720 whole entry): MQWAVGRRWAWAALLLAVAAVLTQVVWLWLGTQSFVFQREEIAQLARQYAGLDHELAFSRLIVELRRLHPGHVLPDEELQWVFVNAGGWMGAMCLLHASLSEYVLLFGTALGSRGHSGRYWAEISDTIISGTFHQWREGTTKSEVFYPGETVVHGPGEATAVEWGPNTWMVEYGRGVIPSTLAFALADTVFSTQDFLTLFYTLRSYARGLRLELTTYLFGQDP

| Compound | IC50 ([1]; jurkat) | IC50 [2] | IC50 [3] | Ki [3] | IC50 [4] | Ki [4] | IC50 [5] | IC50 [6] | Ki ([1]; jurkat) | Ki [2] | Ki [5] | Ki [6] | IC50 ([1]; read-out: IC50) [nM] | Ki ([1]; read-out: Ki) [nM] |
| --- | --- | --- | --- | --- | --- | --- | --- | --- | --- | --- | --- | --- | --- | --- |
| CO[C@H]1O[C@@H]2O[C@@]3(C)CC[C@H]4[C@H](C)CC[C@@H]([C@H]1C)[C@@]24OO3 | Not Active | Not Active | Not Active | Not Active | Not Active | Not Active | Not Active | Not Active |  |  |  |  |  |  |
| O=c1[nH]c2ccccc2c2ccccc12 | Not Active | Not Active | Not Active | Not Active | Not Active | Not Active | Not Active | Not Active |  |  |  |  |  |  |
| COc1ccc(C[C@H](N)C(=O)N[C@H]2[C@@H](O)[C@H](n3cnc4c(N(C)C)ncnc43)O[C@@H]2CO)cc1 [PUROMYCIN] | Not Active | Not Active | Not Active | Not Active | Not Active | Not Active | Not Active | Not Active |  |  |  |  |  |  |
| CHROMIC CHLORIDE | Not Active | Not Active | Not Active | Not Active | Not Active | Not Active | Not Active | Not Active | Not Active | Not Active | Not Active | Not Active |  |  |
| C[C@@H]1[C@H](O)[C@@H](C)/C=C/C=C/C=C/C=C/C=C/C=C/C=C/[C@H](O[C@@H]2O[C@H](C)[C@@H](O)[C@H](N)[C@@H]2O)C[C@@H]2O[C@](O)(C[C@@H](O)C[C@@H](O)[C@H](O)CC[C@@H](O)C[C@@H](O)CC(=O)O[C@H]1C)C[C@H](O)[C@H]2C(=O)O [AMPHOTERICIN B] | Not Active | Not Active | Not Active | Not Active | Not Active | Not Active | Not Active | Not Active |  |  |  |  |  |  |
| Cc1c(N)nc([C@H](CC(N)=O)NC[C@H](N)C(N)=O)nc1C(=O)N[C@H](C(=O)N[C@H](C)[C@@H](O)[C@H](C)C(=O)N[C@H](C(=O)NCCc1nc(-c2nc(C(=O)NCCC[S+](C)C)cs2)cs1)[C@@H](C)O)[C@@H](O[C@@H]1O[C@@H](CO)[C@@H](O)[C@H](O)[C@@H]1O[C@H]1O[C@H](CO)[C@@H](O)[C@H](OC(N)=O)[C@@H]1O)c1c[nH]cn1.[Br-] [BLEOMYCIN A2] | Not Active | Not Active | Not Active | Not Active | Not Active | Not Active | Not Active | Not Active |  |  |  |  |  |  |
| O=C(O)CNCP(=O)(O)O [GLYPHOSATE] | Not Active | Not Active | Not Active | Not Active | Not Active | Not Active | Not Active | Not Active |  |  |  |  |  |  |
| Nc1nc(F)nc2c1ncn2[C@@H]1O[C@H](CO)[C@@H](O)[C@@H]1O [FLUDARABINE] | Not Active | Not Active | Not Active | Not Active | Not Active | Not Active | Not Active | Not Active |  |  |  |  |  |  |
| NCC(CC(=O)O)c1ccc(Cl)cc1 (centres undefined) [BACLOFEN] | Not Active | Not Active | Not Active | Not Active | Not Active | Not Active | Not Active | Not Active |  |  |  |  |  |  |
| O=C(Nc1ccc(Cl)c(Cl)c1)c1cc(Cl)cc(Cl)c1O [3,3',4',5-TETRACHLOROSALICYLANILIDE] | Not Active | Not Active | Not Active | Not Active | Not Active | Not Active | Not Active | Not Active |  |  |  |  |  |  |
| Oc1ccccc1 [PHENOL] | Not Active | Not Active | Not Active | Not Active | Not Active | Not Active | Not Active | Not Active |  |  |  |  |  |  |
| CC(C)NCC(O)COc1ccc(CC(N)=O)cc1 (centres undefined) [ATENOLOL] | Not Active | Not Active | Not Active | Not Active | Not Active | Not Active | Not Active | Not Active |  |  |  |  |  |  |
| CNC[C@H](O)c1ccc(O)c(O)c1 [EPINEPHRINE] | Not Active | Not Active | Not Active | Not Active | Not Active | Not Active | Not Active | Not Active |  |  |  |  |  |  |
| CN(Cc1cc(Br)cc(Br)c1N)C1CCCCC1 [BROMHEXINE] |  | Not Active | Not Active | Not Active | Not Active | Not Active | Not Active | Not Active |  |  |  |  | 61 | 25 |
| CC(C)Cc1ccc([C@H](C)C(=O)O)cc1 [DEXIBUPROFEN] | Not Active | Not Active | Not Active | Not Active | Not Active | Not Active | Not Active | Not Active |  |  |  |  |  |  |
| CC(C)Cn1cnc2c(N)nc3ccccc3c21 [IMIQUIMOD] | Not Active |  | Not Active | Not Active | Not Active | Not Active | Not Active | Not Active |  | Not Active |  |  |  |  |
| CC(C)(C#N)c1cc(Cn2cncn2)cc(C(C)(C)C#N)c1 [ANASTROZOLE] | Not Active | Not Active | Not Active | Not Active | Not Active | Not Active | Not Active | Not Active |  |  |  |  |  |  |
| POVIDONE | Not Active | Not Active | Not Active | Not Active | Not Active | Not Active | Not Active | Not Active | Not Active | Not Active | Not Active | Not Active |  |  |
| COc1ccccc1OCCNCC(O)COc1cccc2[nH]c3ccccc3c12 (centres undefined) [CARVEDILOL] | Not Active | Not Active | Not Active | Not Active | Not Active | Not Active | Not Active | Not Active |  |  |  |  |  |  |
| Nc1ccc(Cc2ccc(N)cc2)cc1 | Not Active | Not Active | Not Active | Not Active | Not Active | Not Active | Not Active | Not Active |  |  |  |  |  |  |
| CARBOXYMETHYLCELLULOSE | Not Active | Not Active | Not Active | Not Active | Not Active | Not Active | Not Active | Not Active | Not Active | Not Active | Not Active | Not Active |  |  |
| c1ccc2sc(SSc3nc4ccccc4s3)nc2c1 [BENZOTHIAZYL DISULFIDE] | Not Active | Not Active | Not Active | Not Active | Not Active | Not Active | Not Active | Not Active |  |  |  |  |  |  |
